# Measured values published in patent US20100048462A1, “TRUNCATED PTH PEPTIDES WITH A CYCLIC CONFORMATION” (Zealand Pharma A/S, priority 2006, published 2010).
# Bridge positions count the residues as written; N and C are the ends. Square brackets hold non-standard residues; d marks the D form. Peptide text beside a SMILES is read from it. hArg = N=C(N)NCCCC[C@H](N)C(=O)O; Nle = CCCC[C@H](N)C(=O)O; Ac5c = NC1(C(=O)O)CCCC1; Dap = NC[C@H](N)C(=O)O; Aib = CC(C)(N)C(=O)O
# Legend:
# Saos-2 PTH1R = molecular target: T1, Saos-2 PTH1R (Homo sapiens, UniProt Q03431); assay: cAMP-efficacy assay in Saos-2 cells; format: cell-based; details: for EC50: cAMP, 100 μM IBMX, 37° C. 15 min, suffix of label = salt tested; for Emax ± SEM: relative effect to the control (SEQ ID NO: 32)
# T1 construct: endogenous in cells; host or cells: Saos-2
# T1 sequence (Q03431 27-593): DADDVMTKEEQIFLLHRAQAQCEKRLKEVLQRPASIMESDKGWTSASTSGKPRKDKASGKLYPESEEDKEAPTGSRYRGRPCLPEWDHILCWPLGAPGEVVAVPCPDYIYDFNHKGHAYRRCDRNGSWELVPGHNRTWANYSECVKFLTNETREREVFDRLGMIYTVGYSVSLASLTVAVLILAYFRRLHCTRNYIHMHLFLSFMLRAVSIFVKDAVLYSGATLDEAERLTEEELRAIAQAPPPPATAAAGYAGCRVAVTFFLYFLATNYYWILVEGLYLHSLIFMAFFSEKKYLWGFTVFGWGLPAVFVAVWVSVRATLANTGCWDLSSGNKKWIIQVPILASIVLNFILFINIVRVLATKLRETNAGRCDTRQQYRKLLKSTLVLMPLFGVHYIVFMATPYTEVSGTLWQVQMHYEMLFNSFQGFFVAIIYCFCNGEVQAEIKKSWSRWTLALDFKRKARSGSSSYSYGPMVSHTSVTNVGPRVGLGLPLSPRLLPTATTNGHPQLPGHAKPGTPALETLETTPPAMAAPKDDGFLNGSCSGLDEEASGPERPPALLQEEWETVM
# Summary of the method: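 cAMP accumulation was assayed by FlashPlate after 15 min peptide stimulation at 37 °C of Saos-2 cells in Tyrode's buffer containing 100 μM IBMX and 0.1% BSA, with the reaction stopped by ice-cold HCl. Variable-slope logistic fitting gave EC50/pEC50, Hill coefficient and Emax, with single or triplicate points.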
# CYP2D6 = CYP2D6 (Homo sapiens, UniProt P10635); assay: CYP2D6 inhibition in pooled human liver microsomes; format: in vitro ADME; set-up: Pooled human liver microsomes (HLM, final concentration 0.05 mg protein/mL); tissue BD Biosciences 452161; host or cells: pooled human liver microsomes; details: 10 μM compound, dextrorphan formation rate
# Protocol: Stock solutions of the test compounds (1 mM) were prepared in 50% isopropanol or 20% DMSO. Pooled human liver microsomes (HLM, final concentration 0.05 mg protein/mL) were mixed with phosphate buffer (0.1 M potassium phosphate, pH 7.4), CYP2D6 substrate (dextrometrorphan, 5 μM final concentration) and test compound (10 μM), quinidine (0.5 μM) or vehicle (0.2% DMSO or 0.5% isopropanol). The mixture was preincubated for 5 min at 37° C. prior to initiation of the reaction addition of a NADPH regenerating mixture (Final concentration: 1.25 mM NADP^+, 3.3 mM Glucose-6-phosphate, 3.3 mM MgCL2 and 0.4 U/mL glucose-6-phosphat dehydrogenase). After 5 minutes the reaction was stopped by addition of 0.25 volume stop reagent (94% acetonitrile, 6% acetic acid). Each experiment was performed in duplicate or triplicate.
# The quantification of CYP2D6 product (dextrorphan) was performed by LC/MS/MS. After centrifugation for 5 min at 10.000 g, 40 μL of the supernatant was injected onto a C8 RP-HPLC column (XterraMS, C8, […], 50×2.1 mm). Dextrorphan was eluted by a linear gradient from 0 to 90% acetonitrile in 0.1% formic acid over 4 min using a flow rate of 0.15 ml/min. The concentration of dextrorphan in the reaction mixture was estimated from the peak area of the MS/MS transition (m/z 258.1>199) using an external calibration curve (Table 8).
# The CYP2D6 activity in HLM was calculated as the metabolite formation rate: […]
# Where, v is the formation rate, [metabolite] is the detected concentration of dextrorphan (pmol/mL) at the time (t, min) and [protein] is the protein concentration (mg/mL) in the reaction mixture. The influence of the test compounds on the CYP2D6 activity was calculated as % of the activity measured when incubated with the vehicle. The effect of CYP2D6 inhibitor (quinidine) was included as inhibition control within each batch analysis. A reduction in CYP2D6 activity to less than 70% of the vehicle control was considered significant.
# Chain of CYP2D6 (P10635 whole entry): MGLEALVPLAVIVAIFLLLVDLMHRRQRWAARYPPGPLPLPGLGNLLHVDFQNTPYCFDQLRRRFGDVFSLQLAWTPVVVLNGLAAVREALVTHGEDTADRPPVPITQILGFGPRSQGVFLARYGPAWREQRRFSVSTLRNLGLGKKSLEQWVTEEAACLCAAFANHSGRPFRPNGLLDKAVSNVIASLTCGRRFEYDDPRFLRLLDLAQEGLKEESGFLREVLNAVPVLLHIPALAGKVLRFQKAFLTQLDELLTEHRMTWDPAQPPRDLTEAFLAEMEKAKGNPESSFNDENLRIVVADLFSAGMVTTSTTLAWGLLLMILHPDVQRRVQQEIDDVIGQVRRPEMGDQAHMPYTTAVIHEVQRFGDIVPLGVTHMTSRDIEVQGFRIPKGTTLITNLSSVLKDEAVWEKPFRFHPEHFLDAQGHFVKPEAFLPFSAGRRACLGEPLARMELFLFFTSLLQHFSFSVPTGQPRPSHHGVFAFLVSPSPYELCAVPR
SMILES,EC50 (Saos-2 PTH1R) [µM],Emax ± SEM (Saos-2 PTH1R),CYP2D6 activity (% of vehicle) (CYP2D6)
"CC[C@H](C)[C@H](NC(=O)[C@H](CCC(=O)O)NC(=O)C(C)(C)NC(=O)[C@@H](NC(=O)C1(N)CCCC1)C(C)C)C(=O)N[C@@H](CCC(N)=O)C(=O)N[C@@H](CC(C)C)C(=O)N[C@@H](CCSC)C(=O)N[C@@H](Cc1c[nH]cn1)C(=O)N[C@@H](CCC(N)=O)C(=O)N[C@@H](CCCCNC(=N)N)C(=O)N[C@@H](C)C(=O)N[C@H]1CSSC[C@@H](C(N)=O)NC(=O)[C@H](CC(N)=O)NC(=O)[C@H](CC(C)C)NC(=O)[C@H](Cc2c[nH]c3ccccc23)NC1=O [SEQ ID NO: 7, H-Ac5c-Val-Aib-Glu-Ile-Gln-Leu-Met-His-Gln-Har-Ala-Cys( )-Trp-Leu-Asn-Cys( )-NH2] (H-[Ac5c]V[Aib]EIQLMHQ[hArg]ACWLNC-NH2; disulfide 13-17)",0.0501,1.2,85 % of vehicle
"CC[C@H](C)[C@H](NC(=O)[C@H](CCC(=O)O)NC(=O)C(C)(C)NC(=O)[C@@H](NC(=O)C1(N)CCCC1)C(C)C)C(=O)N[C@@H](CCC(N)=O)C(=O)N[C@@H](CC(C)C)C(=O)N[C@@H](CCSC)C(=O)N[C@@H](Cc1c[nH]cn1)C(=O)N[C@@H](CCC(N)=O)C(=O)N[C@@H](CCCCNC(=N)N)C(=O)N[C@@H](C)C(=O)N[C@H]1CCC(=O)NCCCC[C@@H](C(N)=O)NC(=O)[C@H](CC(N)=O)NC(=O)[C@H](CC(C)C)NC(=O)[C@H](Cc2c[nH]c3ccccc23)NC1=O [SEQ ID NO: 8, H-Ac5c-Val-Aib-Glu-Ile-Gln-Leu-Met-His-Gln-Har-Ala-Glu( )-Trp-Leu-Asn-Lys( )-NH2] (H-[Ac5c]V[Aib]EIQLMHQ[hArg]AEWLNK-NH2; lactam 13-17)",0.0115,1.07 ± 0.02,99 % of vehicle
"CC[C@H](C)[C@H](NC(=O)[C@H](CCC(=O)O)NC(=O)C(C)(C)NC(=O)[C@@H](NC(=O)C1(N)CCCC1)C(C)C)C(=O)N[C@@H](CCC(N)=O)C(=O)N[C@@H](CC(C)C)C(=O)N[C@@H](CCSC)C(=O)N[C@@H](Cc1c[nH]cn1)C(=O)N[C@@H](CCC(N)=O)C(=O)N[C@@H](CCCCNC(=N)N)C(=O)N[C@@H](C)C(=O)N[C@H]1CCCCNC(=O)CC[C@@H](C(N)=O)NC(=O)[C@H](CC(N)=O)NC(=O)[C@H](CC(C)C)NC(=O)[C@H](Cc2c[nH]c3ccccc23)NC1=O [SEQ ID NO: 9, H-Ac5c-Val-Aib-Glu-Ile-Gln-Leu-Met-His-Gln-Har-Ala-Lys( )-Trp-Leu-Asn-Glu( )-NH2] (H-[Ac5c]V[Aib]EIQLMHQ[hArg]AKWLNE-NH2; lactam 13-17)",0.0141,1.03 ± 0.03,85 % of vehicle
"CC[C@H](C)[C@H](NC(=O)[C@H](CCC(=O)O)NC(=O)C(C)(C)NC(=O)[C@@H](NC(=O)C1(N)CCCC1)C(C)C)C(=O)N[C@@H](CCC(N)=O)C(=O)N[C@@H](CC(C)C)C(=O)N[C@@H](CC(C)C)C(=O)N[C@@H](Cc1c[nH]cn1)C(=O)N[C@@H](CCC(N)=O)C(=O)N[C@@H](CCCCNC(=N)N)C(=O)N[C@@H](C)C(=O)N[C@H]1CNC(=O)C[C@@H](C(N)=O)NC(=O)[C@H](CC(N)=O)NC(=O)[C@H](CC(C)C)NC(=O)[C@H](Cc2c[nH]c3ccccc23)NC1=O [SEQ ID NO: 17, H-Ac5c-Val-Aib-Glu-Ile-Gln-Leu-Leu-His-Gln-Har-Ala-Dpr( )-Trp-Leu-Asn-Asp( )-NH2] (H-[Ac5c]V[Aib]EIQLLHQ[hArg]A[Dap]WLND-NH2; lactam 13-17)",0.776,1.25 ± 0.05,101 % of vehicle
"CC[C@H](C)[C@H](NC(=O)[C@H](CCC(=O)O)NC(=O)C(C)(C)NC(=O)[C@@H](NC(=O)C1(N)CCCC1)C(C)C)C(=O)N[C@@H](CCC(=O)O)C(=O)N[C@@H](CC(C)C)C(=O)N[C@@H](CCSC)C(=O)N[C@@H](Cc1c[nH]cn1)C(=O)N[C@@H](CCC(N)=O)C(=O)N[C@@H](CCCCNC(=N)N)C(=O)N[C@@H](C)C(=O)N[C@H]1CCCCNC(=O)C[C@@H](C(N)=O)NC(=O)[C@H](CC(N)=O)NC(=O)[C@H](CC(C)C)NC(=O)[C@H](Cc2c[nH]c3ccccc23)NC1=O [SEQ ID NO: 18, H-Ac5c-Val-Aib-Glu-IIe-Glu-Leu-Met-His-Gln-Har-Ala-Lys( )-Trp-Leu-Asn-Asp( )-NH2] (H-[Ac5c]V[Aib]EIELMHQ[hArg]AKWLND-NH2; lactam 13-17)",0.0513,1.24 ± 0.29,89 % of vehicle
"CCCC[C@H](NC(=O)[C@H](CC(C)C)NC(=O)[C@H](CCC(N)=O)NC(=O)[C@@H](NC(=O)[C@H](CCC(=O)O)NC(=O)C(C)(C)NC(=O)[C@@H](NC(=O)C1(N)CCCC1)C(C)C)[C@@H](C)CC)C(=O)N[C@@H](Cc1c[nH]cn1)C(=O)N[C@@H](CCC(N)=O)C(=O)N[C@@H](CCCCNC(=N)N)C(=O)N[C@@H](C)C(=O)N[C@H]1CCCCNC(=O)C[C@@H](C(N)=O)NC(=O)[C@H](CC(N)=O)NC(=O)[C@H](CC(C)C)NC(=O)[C@H](Cc2c[nH]c3ccccc23)NC1=O [SEQ ID NO: 20, H-Ac5c-Val-Aib-Glu-Ile-Gln-Leu-Nle-His-Gln-Har-Ala-Lys( )-Trp-Leu-Asn-Asp( )-NH2] (H-[Ac5c]V[Aib]EIQL[Nle]HQ[hArg]AKWLND-NH2; lactam 13-17)",0.00794,0.97 ± 0.04,99 % of vehicle
"CC[C@H](C)[C@H](NC(=O)[C@H](CCC(=O)O)NC(=O)C(C)(C)NC(=O)[C@@H](NC(=O)C1(N)CCCC1)C(C)C)C(=O)N[C@@H](CCC(N)=O)C(=O)N[C@@H](CC(C)C)C(=O)N[C@H](C(=O)N[C@@H](Cc1c[nH]cn1)C(=O)N[C@@H](CCC(N)=O)C(=O)N[C@@H](CCCCNC(=N)N)C(=O)N[C@@H](C)C(=O)N[C@H]1CCCCNC(=O)C[C@@H](C(N)=O)NC(=O)[C@H](CC(N)=O)NC(=O)[C@H](CC(C)C)NC(=O)[C@H](Cc2c[nH]c3ccccc23)NC1=O)C(C)C [SEQ ID NO: 21, H-Ac5c-Val-Aib-Glu-Ile-Gln-Leu-Val-His-Gln-Har-Ala-Lys( )-Trp-Leu-Asn-Asp( )-NH2] (H-[Ac5c]V[Aib]EIQLVHQ[hArg]AKWLND-NH2; lactam 13-17)",0.151,1.40 ± 0.27,92 % of vehicle
"CC[C@H](C)[C@H](NC(=O)[C@H](CCC(=O)O)NC(=O)C(C)(C)NC(=O)[C@@H](NC(=O)C1(N)CCCC1)C(C)C)C(=O)N[C@@H](CCC(N)=O)C(=O)N[C@@H](CC(C)C)C(=O)N[C@@H](CCSC)C(=O)N[C@@H](Cc1c[nH]cn1)C(=O)N[C@@H](CCC(=O)O)C(=O)N[C@@H](CCCCNC(=N)N)C(=O)N[C@@H](C)C(=O)N[C@H]1CCCCNC(=O)C[C@@H](C(N)=O)NC(=O)[C@H](CC(N)=O)NC(=O)[C@H](CC(C)C)NC(=O)[C@H](Cc2c[nH]c3ccccc23)NC1=O [SEQ ID NO: 24, H-Ac5c-Val-Aib-Glu-Ile-Gln-Leu-Met-His-Glu-Har-Ala-Lys( )-Trp-Leu-Asn-Asp( )-NH2] (H-[Ac5c]V[Aib]EIQLMHE[hArg]AKWLND-NH2; lactam 13-17)",0.126,1.4,83 % of vehicle
